Measured values as given in paper PMC12682947, “Identification of New KCNT1‐Epilepsy Drugs by In Silico, Cell, and Drosophila Modeling” (Annals of Neurology, 2025).
Counter-ions that a name gives are not always drawn.

Tested on: Drosophila mutant KCNT1 lines (G288S, R398Q, R928C)
Test: Bang-sensitive behavioral seizure assay, statements for all three Drosophila mutant KCNT1 lines
Format: in vivo, Drosophila melanogaster
Conditions: for effect on seizure activity (in words): drug in food, 1 nM to 1 μM, each of the three mutant lines
Excerpt: The Drosophila melanogaster lines carrying the WT human KCNT1 transgene (NM_020822_3) or KCNT1 mutant G288S, R398Q or R928C transgene placed downstream of the yeast UAS promoter, have been described previously.[11] WT or mutant human UAS‐KCNT1 flies were crossed to flies expressing the GAL4 transcriptional activator under the control of the GAD1 promoter (GABAergic driver, Bloomington stock number 51630 P2) to drive expression of KCNT1 in GABAergic neurons, involved in neuronal inhibition.[11]
The bang‐sensitive behavioral assay (also known as the banging assay) was used to test for the presence of a seizure phenotype in Drosophila.[11], [30] Experiments were performed and scored, as previously described,[11] with a minimum of 50 Drosophila tested for each genotype and drug concentration.
Four drugs were selected for in vivo analysis to determine their effects on the seizure phenotypes in transgenic Drosophila lines with human mutant KCNT1 channels. Bepridil, a nonselective KCNT1 inhibitor was included for comparison. Drosophila food with and without drugs was prepared as previously described.[11] All chemicals were obtained from Sigma‐Aldrich (Gillingham, UK) apart from antrafenine hydrochloride (Toronto Research Chemicals, Canada) and regorafenib (USP, Germany).
Drosophila crosses were set up, and the resulting embryos were collected, as previously described.[11] A range of concentrations of each drug dissolved in Drosophila food, between 0.001 μM and 1 μM, were used in the experiments. Multiple replicates were performed for each dosage of the drugs and controls. Controls were vehicle controlled (VC), which was the normal food with just the solvent ethanol present (1 μl/1 ml) in the Drosophila food, and normal food (NF) control where no drug or solvent (ethanol) was added in the Drosophila food.
In all experiments, experimenters were not blinded to variants or treatments, nor were samples randomly assigned to groups. Sample sizes were not calculated in advance and no data were excluded from the analysis. Data were analyzed using GraphPad Prism 9 software (San Diego, CA, USA). All values are reported as mean ± standard error of the mean (SEM). All data passed normality and lognormality Shapiro–Wilk tests, determined by GraphPad Prism 9. In the experiments analyzing the effects of drugs in Drosophila, statistical significance of differences between groups was determined using Brown‐Forsythe and Welch's analysis of variance (ANOVA) tests (Supplementary Table S3), assuming non‐equal SDs, followed by Dunnett's multiple comparisons tests (GraphPad Prism 9). The results of the Dunnett's multiple comparisons tests are shown in Supplementary Table S4, where “N” represents independent trials using independent fly crosses, with the total number of flies for each condition shown in brackets.

Structure (SMILES)	viability of adult flies (1 μM in food)	effect on seizure activity (in words)
CC(C)c1c(C(=O)Nc2ccccc2)c(-c2ccccc2)c(-c2ccc(F)cc2)n1CC[C@@H](O)C[C@@H](O)CC(=O)O [atorvastatin]	reduced viability	did not show a significant effect
Cc1c(O)cccc1C(=O)N[C@@H](CSc1ccccc1)[C@H](O)CN1C[C@H]2CCCC[C@H]2C[C@H]1C(=O)NC(C)(C)C [nelfinavir mesylate]		significantly reduce the seizure activity
O=C(OCCN1CCN(c2cccc(C(F)(F)F)c2)CC1)c1ccccc1Nc1ccnc2cc(C(F)(F)F)ccc12 [antrafenine]		significantly reduce the seizure activity
CNC(=O)c1cc(Oc2ccc(NC(=O)Nc3ccc(Cl)c(C(F)(F)F)c3)c(F)c2)ccn1 [regorafenib]		did not show a significant effect
